# Numbers after ± are expanded uncertainties.
# Test: xn = mol fraction of the nth substance listed
smiles,measurement,setting,value
"Cc1nccnc1C [2,3-dimethylpyrazine] + O=C=O",mass density,"328.55 K, 14100 kPa, Fluid (supercritical or subcritical phases), Linear displacement technique, x1 = 0.291",857 ± 34 kg/m3
same,mass density,"328.55 K, 15620 kPa, Fluid (supercritical or subcritical phases), Linear displacement technique, x1 = 0.01",757 ± 31 kg/m3
same,mass density,"328.55 K, 16930 kPa, Fluid (supercritical or subcritical phases), Linear displacement technique, x1 = 0.291",859 ± 34 kg/m3
same,mass density,"328.55 K, Liquid, linear displacement, x1 = 0.291",855 ± 34 kg/m3
same,mass density,"329.65 K, 6660 kPa, Fluid (supercritical or subcritical phases), Linear displacement technique, x1 = 0.565",912 ± 36 kg/m3
same,mass density,"329.65 K, 8240 kPa, Fluid (supercritical or subcritical phases), Linear displacement technique, x1 = 0.565",914 ± 37 kg/m3
same,mass density,"329.65 K, 14590 kPa, Fluid (supercritical or subcritical phases), Linear displacement technique, x1 = 0.565",919 ± 37 kg/m3
same,mass density,"329.65 K, Liquid, linear displacement, x1 = 0.565",909 ± 36 kg/m3
same,mass density,"329.75 K, 12170 kPa, Fluid (supercritical or subcritical phases), Linear displacement technique, x1 = 0.033",656 ± 27 kg/m3
same,mass density,"329.75 K, 12970 kPa, Fluid (supercritical or subcritical phases), Linear displacement technique, x1 = 0.033",684 ± 28 kg/m3
same,mass density,"329.75 K, 14310 kPa, Fluid (supercritical or subcritical phases), Linear displacement technique, x1 = 0.033",713 ± 29 kg/m3
same,mass density,"329.75 K, 16930 kPa, Fluid (supercritical or subcritical phases), Linear displacement technique, x1 = 0.033",765 ± 31 kg/m3
same,mass density,"329.75 K, Liquid, linear displacement, x1 = 0.033",560 ± 23 kg/m3
same,mass density,"329.85 K, 12860 kPa, Fluid (supercritical or subcritical phases), Linear displacement technique, x1 = 0.108",845 ± 36 kg/m3
same,mass density,"329.85 K, 14590 kPa, Fluid (supercritical or subcritical phases), Linear displacement technique, x1 = 0.108",855 ± 34 kg/m3
same,mass density,"329.85 K, 19000 kPa, Fluid (supercritical or subcritical phases), Linear displacement technique, x1 = 0.108",879 ± 35 kg/m3
same,mass density,"329.85 K, Liquid, linear displacement, x1 = 0.108",822 ± 33 kg/m3
same,mass density,"330.35 K, 11790 kPa, Fluid (supercritical or subcritical phases), Linear displacement technique, x1 = 0.157",902 ± 39 kg/m3
same,mass density,"330.35 K, 14240 kPa, Fluid (supercritical or subcritical phases), Linear displacement technique, x1 = 0.157",919 ± 37 kg/m3
same,mass density,"330.35 K, 17550 kPa, Fluid (supercritical or subcritical phases), Linear displacement technique, x1 = 0.157",937 ± 38 kg/m3
same,mass density,"330.35 K, Liquid, linear displacement, x1 = 0.157",884 ± 35 kg/m3
same,mass density,"331.65 K, 11550 kPa, Fluid (supercritical or subcritical phases), Linear displacement technique, x1 = 0.086",645 ± 26 kg/m3
same,mass density,"331.65 K, 12210 kPa, Fluid (supercritical or subcritical phases), Linear displacement technique, x1 = 0.057",762 ± 32 kg/m3
same,mass density,"331.65 K, 12830 kPa, Fluid (supercritical or subcritical phases), Linear displacement technique, x1 = 0.057",785 ± 33 kg/m3
same,mass density,"331.65 K, 14030 kPa, Fluid (supercritical or subcritical phases), Linear displacement technique, x1 = 0.086",676 ± 28 kg/m3
same,mass density,"331.65 K, 15620 kPa, Fluid (supercritical or subcritical phases), Linear displacement technique, x1 = 0.086",689 ± 28 kg/m3
same,mass density,"331.65 K, 19380 kPa, Fluid (supercritical or subcritical phases), Linear displacement technique, x1 = 0.057",886 ± 36 kg/m3
same,mass density,"331.65 K, Liquid, linear displacement, x1 = 0.057",719 ± 29 kg/m3
same,mass density,"331.65 K, Liquid, linear displacement, x1 = 0.086",627 ± 25 kg/m3
same,mass density,"332.85 K, 12790 kPa, Fluid (supercritical or subcritical phases), Linear displacement technique, x1 = 0.049",767 ± 32 kg/m3
same,mass density,"332.85 K, 14620 kPa, Fluid (supercritical or subcritical phases), Linear displacement technique, x1 = 0.049",811 ± 33 kg/m3
same,mass density,"332.85 K, 15690 kPa, Fluid (supercritical or subcritical phases), Linear displacement technique, x1 = 0.049",834 ± 35 kg/m3
same,mass density,"332.85 K, Liquid, linear displacement, x1 = 0.049",708 ± 28 kg/m3
same,mass density,"333.95 K, 5520 kPa, Fluid (supercritical or subcritical phases), Linear displacement technique, x1 = 0.736",855 ± 34 kg/m3
same,mass density,"333.95 K, 12830 kPa, Fluid (supercritical or subcritical phases), Linear displacement technique, x1 = 0.736",858 ± 34 kg/m3
same,mass density,"333.95 K, 19520 kPa, Fluid (supercritical or subcritical phases), Linear displacement technique, x1 = 0.736",858 ± 34 kg/m3
same,mass density,"333.95 K, Liquid, linear displacement, x1 = 0.736",854 ± 34 kg/m3
same,mass density,"335.15 K, 12970 kPa, Fluid (supercritical or subcritical phases), Linear displacement technique, x1 = 0.027",605 ± 28 kg/m3
same,mass density,"335.15 K, 13550 kPa, Fluid (supercritical or subcritical phases), Linear displacement technique, x1 = 0.027",633 ± 28 kg/m3
same,mass density,"335.15 K, 14590 kPa, Fluid (supercritical or subcritical phases), Linear displacement technique, x1 = 0.027",668 ± 29 kg/m3
same,mass density,"338.75 K, 11790 kPa, Fluid (supercritical or subcritical phases), Linear displacement technique, x1 = 0.184",860 ± 34 kg/m3
same,mass density,"338.75 K, 14170 kPa, Fluid (supercritical or subcritical phases), Linear displacement technique, x1 = 0.184",874 ± 35 kg/m3
same,mass density,"338.75 K, 16720 kPa, Fluid (supercritical or subcritical phases), Linear displacement technique, x1 = 0.184",886 ± 35 kg/m3
same,mass density,"338.75 K, Liquid, linear displacement, x1 = 0.184",852 ± 34 kg/m3
same,mass density,"340.75 K, 12790 kPa, Fluid (supercritical or subcritical phases), Linear displacement technique, x1 = 0.108",786 ± 33 kg/m3
same,mass density,"340.75 K, 14030 kPa, Fluid (supercritical or subcritical phases), Linear displacement technique, x1 = 0.108",810 ± 33 kg/m3
same,mass density,"340.75 K, 17340 kPa, Fluid (supercritical or subcritical phases), Linear displacement technique, x1 = 0.108",837 ± 34 kg/m3
same,mass density,"340.75 K, 20170 kPa, Fluid (supercritical or subcritical phases), Linear displacement technique, x1 = 0.108",858 ± 34 kg/m3
same,mass density,"340.75 K, Liquid, linear displacement, x1 = 0.108",771 ± 31 kg/m3
same,mass density,"341.25 K, 10790 kPa, Fluid (supercritical or subcritical phases), Linear displacement technique, x1 = 0.01",327 ± 20 kg/m3
same,mass density,"341.95 K, 8900 kPa, Fluid (supercritical or subcritical phases), Linear displacement technique, x1 = 0.433",918 ± 37 kg/m3
same,mass density,"341.95 K, 12340 kPa, Fluid (supercritical or subcritical phases), Linear displacement technique, x1 = 0.433",926 ± 37 kg/m3
same,mass density,"341.95 K, 17480 kPa, Fluid (supercritical or subcritical phases), Linear displacement technique, x1 = 0.433",934 ± 37 kg/m3
same,mass density,"341.95 K, 23830 kPa, Fluid (supercritical or subcritical phases), Linear displacement technique, x1 = 0.433",945 ± 38 kg/m3
same,mass density,"341.95 K, Liquid, linear displacement, x1 = 0.433",915 ± 37 kg/m3
same,mass density,"343.15 K, 13410 kPa, Fluid (supercritical or subcritical phases), Linear displacement technique, x1 = 0.057",679 ± 28 kg/m3
same,mass density,"343.15 K, 14660 kPa, Fluid (supercritical or subcritical phases), Linear displacement technique, x1 = 0.057",719 ± 30 kg/m3
same,mass density,"343.15 K, 16170 kPa, Fluid (supercritical or subcritical phases), Linear displacement technique, x1 = 0.057",750 ± 31 kg/m3
same,mass density,"343.15 K, Liquid, linear displacement, x1 = 0.057",639 ± 26 kg/m3
same,mass density,"343.25 K, 14210 kPa, Fluid (supercritical or subcritical phases), Linear displacement technique, x1 = 0.033",585 ± 26 kg/m3
same,mass density,"343.25 K, 14930 kPa, Fluid (supercritical or subcritical phases), Linear displacement technique, x1 = 0.033",615 ± 26 kg/m3
same,mass density,"343.25 K, 16340 kPa, Fluid (supercritical or subcritical phases), Linear displacement technique, x1 = 0.033",657 ± 28 kg/m3
same,mass density,"345.05 K, 14100 kPa, Fluid (supercritical or subcritical phases), Linear displacement technique, x1 = 0.049",698 ± 30 kg/m3
same,mass density,"345.05 K, 15410 kPa, Fluid (supercritical or subcritical phases), Linear displacement technique, x1 = 0.049",745 ± 31 kg/m3
same,mass density,"345.05 K, 17240 kPa, Fluid (supercritical or subcritical phases), Linear displacement technique, x1 = 0.049",791 ± 32 kg/m3
same,mass density,"345.05 K, Liquid, linear displacement, x1 = 0.049",638 ± 26 kg/m3
same,mass density,"345.85 K, 15140 kPa, Fluid (supercritical or subcritical phases), Linear displacement technique, x1 = 0.086",626 ± 25 kg/m3
same,mass density,"345.85 K, 15900 kPa, Fluid (supercritical or subcritical phases), Linear displacement technique, x1 = 0.086",638 ± 33 kg/m3
same,mass density,"345.85 K, Liquid, linear displacement, x1 = 0.086",579 ± 23 kg/m3
same,mass density,"347.05 K, 11760 kPa, Fluid (supercritical or subcritical phases), Linear displacement technique, x1 = 0.291",853 ± 34 kg/m3
same,mass density,"347.05 K, 14070 kPa, Fluid (supercritical or subcritical phases), Linear displacement technique, x1 = 0.291",855 ± 34 kg/m3
same,mass density,"347.05 K, 18860 kPa, Fluid (supercritical or subcritical phases), Linear displacement technique, x1 = 0.291",857 ± 34 kg/m3
same,mass density,"347.05 K, Liquid, linear displacement, x1 = 0.291",852 ± 34 kg/m3
same,mass density,"347.65 K, 8210 kPa, Fluid (supercritical or subcritical phases), Linear displacement technique, x1 = 0.565",895 ± 36 kg/m3
same,mass density,"347.65 K, 11830 kPa, Fluid (supercritical or subcritical phases), Linear displacement technique, x1 = 0.565",901 ± 36 kg/m3
same,mass density,"347.65 K, 18520 kPa, Fluid (supercritical or subcritical phases), Linear displacement technique, x1 = 0.565",907 ± 36 kg/m3
same,mass density,"347.65 K, Liquid, linear displacement, x1 = 0.565",893 ± 36 kg/m3
same,mass density,"347.85 K, 12690 kPa, Fluid (supercritical or subcritical phases), Linear displacement technique, x1 = 0.184",828 ± 33 kg/m3
